Experimental data reported in patent publication US20020137929A1, “1 - (3-heterocyclylphenyl) isothiourea, -isourea, -guanidine and -amidine herbicidal agents” (Intellectual Property Department, BASF Aktiengesellschaft, priority 1998, published 2002).

How the values were obtained:
ABUTH (Velvetleaf) = test: Postemergence herbicidal evaluation; format: in vivo, Abutilon theophrasti; settings: for Herbicidal rating ABUTH: postemergence
Summary of the method: (§1)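 Rate range approx. 0.0156–0.500 kg/ha. Foliar application at 40 psi to ~2-week seedlings; surfactant 0.5% TWEEN 20 in 50/50 acetone/water. Evaluation 4–5 wk post-treatment by 0–9 visual injury score, means of replicate tests.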

GALAP (Galium) [1] = test: Postemergence herbicidal evaluation; format: in vivo, Galium aparine; settings: for Herbicidal rating GALAP: postemergence
Summary of the method: as §1

ORYSAT (Rice, Tebonnet) = test: Rice tolerance to post-transplant applications, flooded paddy conditions (Table III); format: in vivo, Oryza sativa, (L.) Tebonnet; settings: in vivo
Experimental: Results of herbicide evaluation are expressed on a rating scale (0-9). The scale is based upon a visual observation of plant stand, vigor, malformation, size, chlorosis and overall plant appearance as compared with a control.
The tolerance of transplanted rice to post-transplanted herbicide applications is determined as follows: two ten-day-old rice seedlings (cv. Tebonnet) are transplanted into silt loam soil in 32 oz. plastic containers with a diameter of 10.5 cm and no drainage holes. After transplanting, the containers are flooded and the water level is maintained at 1.5 to 3 cm above the soil surface. Three days after transplanting, the flooded soil surface of the containers is treated with the selected aqueous/acetone 50/50 v/v mixture containing the test compounds to provide the equivalent of about 0.0313 to 0.500 kg/ha of active ingredient. The treated containers are placed on greenhouse benches, watered such that the water level is maintained as stated above, and cared for in accordance with conventional greenhouse procedures. Three to four weeks after treatment, the test is terminated and each container is examined and herbicidal effect rated according to the rating system provided in Example 37. The compounds evaluated are reported by compound number given in Example 37.
Plant species employed in this example are reported by header abbreviation, common name and scientific name.

MOOVA (Monochoria) = test: Postemergence weed control under flooded paddy conditions; format: in vivo, Monochoria vaginalis; settings: postemergence weeds
Summary of the method: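 Herbicidal effect is judged by eye on a 0–9 scale versus control, 3–4 weeks after dosing. Dosing is into flood water kept 1.5–3 cm over the soil, at about 0.0313–0.500 kg/ha in aqueous/acetone 50/50 v/v, on 3–5 cm weeds and 1.5–2.5-leaf rice seedlings.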

GALAP (Galium) [2] = test: Preemergence herbicidal evaluation; format: in vivo, Galium aparine; settings: rated 4-5 weeks after treatment; for GALAP rating: preemergence, 0-9 scale
Summary of the method: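 Scores use a 0–9 visual scale covering stand, vigor, malformation, size and chlorosis relative to controls, rated four to five weeks after treatment. Before emergence, soil-planted seeds were sprayed with compound in aqueous acetone at roughly 0.0156–0.500 kg/ha and held in the greenhouse.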

[3] = Rate 0.0313 kg/ha, rated 3 to 4 weeks after treatment
[4] = Rate 0.0625 kg/ha, rated 3 to 4 weeks after treatment
[5] = Rate 0.1250 kg/ha, rated 3 to 4 weeks after treatment
[6] = Rate 0.2500 kg/ha, rated 3 to 4 weeks after treatment
[7] = rate 0.0156 kg/ha, rating scale 0-9
[8] = rate 0.0313 kg/ha, rating scale 0-9
[9] = rate 0.0625 kg/ha, rating scale 0-9
[10] = rate 0.1250 kg/ha, rating scale 0-9
[11] = rate 0.2500 kg/ha, rating scale 0-9

Compound | Herbicidal rating ABUTH (ABUTH (Velvetleaf); rate 0.0156 kg/ha) | Herbicidal rating ABUTH (ABUTH (Velvetleaf); rate 0.0313 kg/ha) | Herbicidal rating ABUTH (ABUTH (Velvetleaf); rate 0.0625 kg/ha) | Herbicidal rating GALAP (GALAP (Galium) [1]; rate 0.0156 kg/ha) | Herbicidal rating GALAP (GALAP (Galium) [1]; rate 0.0313 kg/ha) | Herbicidal rating GALAP (GALAP (Galium) [1]; rate 0.0625 kg/ha) | Preemergence herbicidal rating GALAP (GALAP (Galium) [2]; [8]) | Preemergence herbicidal rating GALAP (GALAP (Galium) [2]; [9]) | Preemergence herbicidal rating GALAP (GALAP (Galium) [2]; [10]) | Preemergence herbicidal rating GALAP (GALAP (Galium) [2]; [11]) | herbicidal effect rating, ORYSAT (rice tolerance) (ORYSAT (Rice, Tebonnet)) | also measured
2-{{2-Chloro-5-[3,6-dihydro-3-methyl-2,6-dioxo-4-(trifluoromethyl)-1(2H)-pyrimidinyl]-4-fluoro-phenyl}imino}-4-oxo-3,5-thiazolidenediacetic acid, 3-ethyl (2-propynyl) ester, (2:1) mixture with di-2-propynyl ester [Compound 58] |  |  |  |  |  |  |  |  |  |  |  | Postemergence herbicidal rating ABUTH (ABUTH (Velvetleaf); Rate 0.0158 kg/ha): 9.0; Postemergence herbicidal rating ABUTH (ABUTH (Velvetleaf); Rate 0.0315 kg/ha): 9.0; Postemergence herbicidal rating ABUTH (ABUTH (Velvetleaf); Rate 0.0630 kg/ha): 9.0; Postemergence herbicidal rating GALAP (GALAP (Galium) [1]; Rate 0.0158 kg/ha): 1.0; Postemergence herbicidal rating GALAP (GALAP (Galium) [1]; Rate 0.0315 kg/ha): 3.0; Postemergence herbicidal rating GALAP (GALAP (Galium) [1]; Rate 0.0630 kg/ha): 9.0; ORYSAT herbicidal effect rating (rice tolerance) (ORYSAT (Rice, Tebonnet)): 4.0; Herbicidal rating MOOVA (MOOVA (Monochoria); rate 0.0313 kg/ha, 3-4 weeks after treatment): 0.0; Herbicidal rating MOOVA (MOOVA (Monochoria); rate 0.0625 kg/ha, 3-4 weeks after treatment): 0.0; Herbicidal rating MOOVA (MOOVA (Monochoria); rate 0.1250 kg/ha, 3-4 weeks after treatment): 3.0; Herbicidal rating MOOVA (MOOVA (Monochoria); rate 0.2500 kg/ha, 3-4 weeks after treatment): 9.0
C=CCN1C(=O)C(CC(=O)NS(=O)(=O)CC)SC1=Nc1cc(-n2c(=O)cc(C(F)(F)F)n(C)c2=O)c(F)cc1Cl (centres unmarked) [Compound 104, 3-Allyl-2-{{2-chloro-5-[3,6-dihydro-3-methyl-2,6-dioxo-4-(trifluoromethyl)-1(2H)-pyrimidinyl]-4-fluorophenyl}imino}-N-(ethylsulfonyl)-4-oxo-5-thiazolidineacetamide] | 7.0 | 7.0 | 9.0 | 0.0 | 0.0 | 1.0 |  |  |  |  |  | Herbicidal rating ABUTH (ABUTH (Velvetleaf); rate 0.1250 kg/ha): 9.0; Herbicidal rating GALAP (GALAP (Galium) [1]; rate 0.1250 kg/ha): 2.0; GALAP rating (GALAP (Galium) [2]; 0.0625 kg/ha): 0.0; GALAP rating (GALAP (Galium) [2]; 0.1250 kg/ha): 0.0; GALAP rating (GALAP (Galium) [2]; 0.2500 kg/ha): 0.0; GALAP rating (GALAP (Galium) [2]; 0.5000 kg/ha): 6.0; Herbicidal rating MOOVA (MOOVA (Monochoria); [3]): 7.0; Herbicidal rating MOOVA (MOOVA (Monochoria); [4]): 9.0; Herbicidal rating MOOVA (MOOVA (Monochoria); [5]): 9.0; Herbicidal rating MOOVA (MOOVA (Monochoria); [6]): 9.0
CC(C)S(=O)(=O)NC(=O)CC1SC(=Nc2cc(-n3c(=O)cc(C(F)(F)F)n(C)c3=O)c(F)cc2Cl)N(C)C1=O (centres unmarked) [Compound 119, 2-{{2-Chloro-5-[3,6-dihydro-3-methyl-2,6-dioxo-4-(trifluoromethyl)-1(2H)-pyrimidinyl]-4-fluorophenyl}imino}-N-(isopropylsulfonyl)-3-methyl-4-oxo-5-thiazolidineacetamide] | 9.0 | 9.0 | 9.0 | 1.0 | 1.0 | 3.0 |  |  |  |  |  | Preemergence herbicidal rating GALAP (GALAP (Galium) [2]; rate 0.0156 kg/ha): 0.0; Preemergence herbicidal rating GALAP (GALAP (Galium) [2]; rate 0.0313 kg/ha): 0.0; Preemergence herbicidal rating GALAP (GALAP (Galium) [2]; rate 0.0625 kg/ha): 0.0; Preemergence herbicidal rating GALAP (GALAP (Galium) [2]; rate 0.1250 kg/ha): 0.0; Preemergence herbicidal rating GALAP (GALAP (Galium) [2]; rate 0.2500 kg/ha): 4.0; Herbicidal rating MOOVA (MOOVA (Monochoria); [3]): 4.0; Herbicidal rating MOOVA (MOOVA (Monochoria); [4]): 7.0; Herbicidal rating MOOVA (MOOVA (Monochoria); [5]): 8.0; Herbicidal rating MOOVA (MOOVA (Monochoria); [6]): 9.0
CN(C)c1ccc(CN2C(=O)CSC2=Nc2cc(-n3c(=O)cc(C(F)(F)F)n(C)c3=O)c(F)cc2Cl)cc1 [Compound 138, 3-{4-Chloro-5-{{3-[p-(dimethylamino)benzyl]-4-oxo-2-thiazolidinylidene}amino}-2-fluorophenyl}-1-methyl-6-(trifluoromethyl)-2,4(1H,3H)-pyrimidinedione] | 9.0 | 9.0 | 9.0 | 0.0 | 2.0 | 2.0 | 0.0 | 0.0 | 0.0 | 4.0 | 3.0 | Preemergence herbicidal rating GALAP (GALAP (Galium) [2]; [7]): 0.0
Cn1c(C(F)(F)F)cc(=O)n(-c2cc(N=C3SCC(=O)N3Cc3ccc(C(F)(F)F)cc3)c(Cl)cc2F)c1=O [Compound 141, 3-{4-Chloro-2-fluoro-5-{{3-[p-(trifluoromethyl)benzyl]-4-oxo-2-thiazolidinylidene}-amino}phenyl}-1-methyl-6-(trifluoromethyl)-2,4 (1H, 3H)-pyrimidinedione] | 7.0 | 7.0 | 8.0 | 0.0 | 2.0 | 2.0 | 0.0 | 0.0 | 0.0 | 0.0 | 0.0 | Preemergence herbicidal rating GALAP (GALAP (Galium) [2]; [7]): 0.0
Cc1ccc(CN2C(=O)CSC2=Nc2cc(-n3c(=O)cc(C(F)(F)F)n(C)c3=O)c(F)cc2Cl)cc1Cl [Compound 149, 3-{4-Chloro-5-{[3-(3-chloro-4-methylbenzyl)-4-oxo-2-thiazolidinylidene]amino}-2-fluorophenyl}-1-methyl-6-(trifluoromethyl)-2,4(1H,3H)-pyrimidinedione] | 4.0 | 8.0 | 9.0 | 0.0 | 0.0 | 2.0 |  |  | 0.0 | 0.0 | 0.0 | 
CCOC(=O)CN1C(=O)C(COC)SC1=Nc1cc(-n2c(=O)cc(C(F)(F)F)n(C)c2=O)c(F)cc1Cl (centres unmarked) [Compound 156, Ethyl 2-{{2-chloro-5-[3,6-dihydro-3-methyl-2,6-dioxo-4-(trifluoromethyl)-1(2H)-pyrimidinyl]-4-fluorophenyl}imino}-5-(methoxymethyl)-4-oxo-3-thiazolidine-acetate] | 9.0 | 9.0 | 9.0 | 0.0 | 0.0 | 3.0 | 0.0 | 4.0 | 4.0 | 9.0 | 3.0 | 
CCOC(=O)CN1C(=O)C(C(=O)OC(C)(C)C)SC1=Nc1cc(-n2c(=O)cc(C(F)(F)F)n(C)c2=O)c(F)cc1Cl (centres unmarked) [Compound 167, 5-Carboxy-2-{{2-chloro-5-[3,6-dihydro-3-methyl-2,6-dioxo-4-(trifluoromethyl)-1(2H)-pyrimidinyl]-4-fluorophenyl}imino}-4-oxo-3-thiazolidineacetic acid, 5-tert-butyl ethyl ester] | 9.0 | 9.0 | 9.0 | 2.0 | 3.0 | 4.0 |  |  |  |  | 4.0 | Herbicidal rating ABUTH (ABUTH (Velvetleaf); rate 0.1250 kg/ha): 9.0; Herbicidal rating GALAP (GALAP (Galium) [1]; rate 0.1250 kg/ha): 4.0; Preemergence herbicidal rating GALAP (GALAP (Galium) [2]; 0.0156 kg/ha): 1.0; Preemergence herbicidal rating GALAP (GALAP (Galium) [2]; 0.0313 kg/ha): 5.0; Preemergence herbicidal rating GALAP (GALAP (Galium) [2]; 0.0625 kg/ha): 7.0; Preemergence herbicidal rating GALAP (GALAP (Galium) [2]; 0.1250 kg/ha): 9.0; Preemergence herbicidal rating GALAP (GALAP (Galium) [2]; 0.2500 kg/ha): 6.0; Preemergence herbicidal rating GALAP (GALAP (Galium) [2]; 0.5000 kg/ha): 7.0
